Reference: ChEMBL document CHEMBL6074707, “Targeting Cancer: A New Era in Cancer Therapy through Immune Fitness Modulation and KRAS Degradation” (ACS Med Chem Lett, 2024)

How the values were obtained:
[1] = tested on: Protein cereblon/GTPase KRas (Homo sapiens), P01116+Q96SW2 [G12D]; assay: PROTAC activity at CRBN/KRAS G12D mutant in human ASPC1 cells assessed as induction of protein degradation incubated for 24 hrs by Western blot analysis relative to control; assay type: cell-based
[2] = target: Protein cereblon/GTPase KRas (Homo sapiens, UniProt P01116+Q96SW2, G12D); assay: PROTAC activity at CRBN/KRAS G12D mutant in human ASPC1 cells assessed as induction of protein degradation incubated for 24 hrs by Western blot analysis; assay type: cell-based
Chain of Protein cereblon/GTPase KRas (P01116 whole entry G12D, stated change not applied): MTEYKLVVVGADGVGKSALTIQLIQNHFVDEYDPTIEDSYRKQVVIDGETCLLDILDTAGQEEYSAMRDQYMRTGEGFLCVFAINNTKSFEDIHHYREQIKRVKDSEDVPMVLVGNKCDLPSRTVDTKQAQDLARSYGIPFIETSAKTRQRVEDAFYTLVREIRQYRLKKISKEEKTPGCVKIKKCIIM
Chain of Protein cereblon/GTPase KRas (Q96SW2 whole entry, stated change not applied): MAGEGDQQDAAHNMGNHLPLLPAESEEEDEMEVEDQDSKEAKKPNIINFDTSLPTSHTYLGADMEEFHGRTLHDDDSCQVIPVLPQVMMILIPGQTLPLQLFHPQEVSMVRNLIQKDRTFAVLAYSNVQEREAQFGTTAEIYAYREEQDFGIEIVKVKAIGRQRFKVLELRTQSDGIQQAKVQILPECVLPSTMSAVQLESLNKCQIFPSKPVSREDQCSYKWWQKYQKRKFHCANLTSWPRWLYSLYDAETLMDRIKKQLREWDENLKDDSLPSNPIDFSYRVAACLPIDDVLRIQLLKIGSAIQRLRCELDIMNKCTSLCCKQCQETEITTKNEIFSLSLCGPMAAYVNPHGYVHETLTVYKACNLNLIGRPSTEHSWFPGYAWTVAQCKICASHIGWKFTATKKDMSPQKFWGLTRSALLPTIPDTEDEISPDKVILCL

Chain of Protein cereblon/GTPase KRas (Homo sapiens), P01116+Q96SW2 [G12D] (P01116 whole entry G12D): as the sequence (P01116 whole entry G12D, stated change not applied) above
Chain of Protein cereblon/GTPase KRas (Homo sapiens), P01116+Q96SW2 [G12D] (Q96SW2 whole entry partner): as the sequence (Q96SW2 whole entry, stated change not applied) above

C#Cc1c(F)ccc2cc(O)cc(-c3ncc4c(N5C[C@H]6CC[C@@H](C5)N6)nc(OC[C@@H]5C[C@@H](OC6CCN(CC7CCN(c8ccc9c(c8)n(C)c(=O)n9C8CCC(=O)NC8=O)CC7)CC6)CN5C)nc4c3F)c12 (some centres undefined)
Emax [1]: > 70% | DC50 [2]: ≤ 100 nM

C#Cc1c(F)ccc2cc(O)cc(-c3ncc4c(N5C[C@H]6CC[C@@H](C5)N6)nc(OCCN5CCC(CC6CCN(CC7CCN(c8ccc9c(c8)CN(C8CCC(=O)NC8=O)C9=O)CC7)CC6)CC5)nc4c3F)c12 (some centres undefined)
Emax [1]: > 70% | DC50 [2]: ≤ 100 nM

C#Cc1c(F)ccc2cc(O)cc(-c3ncc4c(N5C[C@H]6CC[C@@H](C5)N6)nc(OCCN5CCC(CN6CCC7(CC6)CCN(c6ccc8c(c6F)CN(C6CCC(=O)NC6=O)C8=O)CC7)CC5)nc4c3F)c12 (some centres undefined)
Emax [1]: > 70% | DC50 [2]: ≤ 100 nM

C#Cc1c(F)ccc2cc(O)cc(-c3ncc4c(N5C[C@H]6CC[C@@H](C5)N6)nc(OCCN5CCC(CC6CCN(CC7CCN(c8ccc9c(c8)n(C)c(=O)n9C8CCC(=O)NC8=O)CC7)CC6)CC5)nc4c3F)c12 (some centres undefined)
Emax [1]: > 70% | DC50 [2]: ≤ 100 nM

C#Cc1c(F)ccc2cc(O)cc(-c3ncc4c(N5C[C@H]6CC[C@@H](C5)N6)nc(OCCN5CCC(C(F)(F)C6CCN(CC7CCN(c8ccc9c(c8F)CN(C8CCC(=O)NC8=O)C9=O)CC7)CC6)CC5)nc4c3F)c12 (some centres undefined)
Emax [1]: > 70% | DC50 [2]: ≤ 100 nM

C#Cc1c(F)ccc2cc(O)cc(-c3ncc4c(N5C[C@H]6CC[C@@H](C5)N6)nc(OCCN5CCC(CC6CCN(CC7CCN(c8ccc9c(c8F)CN(C8CCC(=O)NC8=O)C9=O)CC7)CC6)CC5)nc4c3F)c12 (some centres undefined)
Emax [1]: > 70% | DC50 [2]: ≤ 100 nM

C#Cc1c(F)ccc2cc(O)cc(-c3ncc4c(N5C[C@H]6CC[C@@H](C5)N6)nc(OCCN5CCC6(CC5)CCN(CC5CCN(c7ccc8c(c7)CN(C7CCC(=O)NC7=O)C8=O)CC5)CC6)nc4c3F)c12 (some centres undefined)
Emax [1]: > 70% | DC50 [2]: ≤ 100 nM

C#Cc1c(F)ccc2cc(O)cc(-c3ncc4c(N5CC6CCC(C5)N6)nc(OC[C@]56CCCN5[C@H](CN5CCN(CC7CCN(c8ccc9c(c8)CN(C8CCC(=O)NC8=O)C9=O)CC7)CC5)CC6)nc4c3F)c12 (some centres undefined)
Emax [1]: > 70% | DC50 [2]: ≤ 100 nM

C#Cc1c(F)ccc2cc(O)cc(-c3ncc4c(N5C[C@H]6CC[C@@H](C5)N6)nc(OCCN5CCC(CN6CCC7(CC6)CCN(c6ccc8c(c6)CN(C6CCC(=O)NC6=O)C8=O)CC7)CC5)nc4c3F)c12 (some centres undefined)
Emax [1]: > 70% | DC50 [2]: ≤ 100 nM

C#Cc1c(F)ccc2cc(O)cc(-c3ncc4c(N5C[C@H]6CC[C@@H](C5)N6)nc(OCCN5CCC(CC6(F)CCN(CC7CCN(c8ccc9c(c8)CN(C8CCC(=O)NC8=O)C9=O)CC7)CC6)CC5)nc4c3F)c12 (some centres undefined)
Emax [1]: 25% | DC50 [2]: > 1000 nM

C#Cc1c(F)ccc2cc(O)cc(-c3ncc4c(N5C[C@H]6CC[C@@H](C5)N6)nc(OCCN5CCC(CN6CC7(CCN(c8ccc9c(c8)CN(C8CCC(=O)NC8=O)C9=O)CC7)C6)CC5)nc4c3F)c12 (some centres undefined)
Emax [1]: > 70% | DC50 [2]: ≤ 100 nM

C#Cc1c(F)ccc2cc(O)cc(-c3ncc4c(N5C[C@H]6CC[C@@H](C5)N6)nc(OC[C@@H]5C[C@@H](OC6CCN(c7ccc8c(c7F)CN(C7CCC(=O)NC7=O)C8=O)CC6)CN5C)nc4c3F)c12 (some centres undefined)
Emax [1]: > 70% | DC50 [2]: ≤ 100 nM
